Source: PubChem BioAssay AID1996
In brackets after ≈: the same amount, converted by molar mass.

Conditions: buffer; pH 7.4; 200.0 µM

SMILES | solubility kinetic [µg/mL]
Nc1cccc2c1C(=O)N(CCOc1ccccc1F)C2=O | 20.3 (≈ 67.6 µM)
COc1ccccc1NC(=S)N1CCn2cccc2C1c1cccnc1 (stereo not drawn) | 42.2 (≈ 116 µM)
CC(=O)N(c1ccc(Cl)cc1)c1nc(C)cc(C)c1C#N | > 45
COc1ccc(S(=O)(=O)N2CCN(c3ccccn3)CC2)cc1[N+](=O)[O-] | 5.8 (≈ 15.3 µM)
O=C(COC(=O)c1ccc(S(=O)(=O)N2CCOCC2)cc1)NCc1ccccc1 | 8.6 (≈ 20.6 µM)
COc1ccc(C(=O)Cn2c(=O)oc3ccc(C)cc32)cc1 | < 0.6
COc1ccc2oc(=O)cc(CN3CCOCC3)c2c1 | 39.5 (≈ 143 µM)
COc1ccc(C2C(C#N)=C(N)Oc3cc(O)ccc32)cc1C (stereo not drawn) | 31.5 (≈ 102 µM)
CCOC(=O)c1csc(-c2ccc3c(c2)CCO3)n1 | 32.3 (≈ 117 µM)
COCc1cc(NCc2ccc(Cl)cc2)nc(C)n1 | 34.7 (≈ 125 µM)
Cc1cc(C)cc(NC(=O)Nc2cccc(S(N)(=O)=O)c2)c1 | 2.5 (≈ 7.83 µM)
CC(C)n1c(SCC(=O)NC2CCCCC2)nnc1-c1ccco1 | > 52.3
COc1cc2c(cc1OC)C(c1ccccc1F)NCC2 (stereo not drawn) | > 43.1
COc1ccc(/C=C/C(=O)NCCCNC(=O)/C=C/c2ccc(OC)c(OC)c2)cc1OC | 60 (≈ 132 µM)
Cc1c(NC(=O)C(C)Oc2ccc(Br)cc2)c(=O)n(-c2ccccc2)n1C (stereo not drawn) | > 64.5
CCCCn1c(N2CCCC2)nc2c1c(=O)[nH]c(=O)n2C | > 43.7
Cc1[nH]c(SCC(=O)Nc2cc(C(N)=O)cc(C(N)=O)c2)nc1Cc1ccccc1 | > 63.5
CCOc1ccc(CNc2nc3ccccc3n2C)cc1 | > 42.2
N#Cc1ccccc1OCC(=O)Nc1ccc2c(c1)OCCO2 | 19.7 (≈ 63.5 µM)
O=C1CC(N2CCN(S(=O)(=O)c3ccccc3F)CC2)C(=O)N1c1ccc(F)cc1F (stereo not drawn) | > 68
COc1ccc(-n2c(-c3ccc(C)cc3)nc3ccccc3c2=O)cc1 | < 0.4
CCCCOc1ccc(C(=O)Nc2ccc3c(c2)OCO3)cc1 | < 0.7
CCOC(=O)c1cnc2c(ccc3ccccc32)c1NCCCN(C)C | 46.1 (≈ 131 µM)
CSc1nccc(-c2c(-c3ccc(Cl)cc3)noc2C)n1 | 4.6 (≈ 14.5 µM)

SMILES | solubility kinetic [µg/mL]
Cc1cc(Cc2ccc([N+](=O)[O-])cc2)c(C)cn1 | > 36.3
O=C(COC(=O)CNC(=O)c1ccccc1)NCc1ccc2c(c1)OCO2 | > 55.6
O=C(NCc1ccccc1C(F)(F)F)C1CCC(=O)N(C2CC2)C1 (stereo not drawn) | > 51.1
O=C(Nc1cc(Cl)ccc1F)C1=COCCO1 | > 38.6
Nc1nc(SCC(=O)NC2CCCC2)[nH]c(=O)c1NC(=O)c1cccs1 | 4.4 (≈ 11.2 µM)
COc1cc(C(CN)CC(=O)O)ccc1O.Cl (stereo not drawn) | > 39.3
Cc1ccc(NC(=O)c2sccc2C)nc1 | 34.8 (≈ 150 µM)
CCOc1ccc2nc(NC(=O)c3ccco3)sc2c1 | 6.9 (≈ 23.9 µM)
CCOc1ccc(C(=O)NCc2ccco2)cc1OC | 37.7 (≈ 137 µM)
C[N+]1(C)C2CCC1CC(OC(=O)c1ccco1)C2.[Br-] (stereo not drawn) | 48.5
CC(=O)N/C(=C\c1ccccc1)C(=O)OCC(=O)N(C)C1CCS(=O)(=O)C1 (stereo not drawn) | > 59.2
Cc1ccc(S(=O)(=O)N2CCOCC2)cc1C(=O)OCC(=O)N1CCCCC1 | > 61.6
O=C(COC(=O)/C=C/c1ccc([N+](=O)[O-])cc1)NCc1ccco1 | 1.5 (≈ 4.54 µM)
CCOC(=O)Cc1csc(N(C)C)n1 | 25.4 (≈ 119 µM)
COC(=O)CCC(=O)Nc1nccs1 | > 32.1
CSCCC(NC(=O)COc1ccccc1)C(=O)NCc1cccs1 (stereo not drawn) | > 56.8
Nc1ccc(Nc2nc3ccccc3[nH]2)cc1 | 25.8 (≈ 115 µM)
CC(C)(C)NC(=O)CSc1nc2cc(S(=O)(=O)N3CCCCC3)ccc2o1 | 3.7 (≈ 8.99 µM)
CC(C)NC(=O)COC(=O)c1ccccc1C(=O)c1ccccc1 | > 48.8
Cc1onc(-c2ccccc2)c1C(=O)/C=C/N(C)C | 36.4 (≈ 142 µM)
N#Cc1ccsc1NC(=O)c1ccc(Cl)c([N+](=O)[O-])c1 | 2.9 (≈ 9.42 µM)
O=C(OCC(=O)N1CCCC1)c1cccc(Br)c1 | > 46.8
O=C(/C=C/c1ccc(-c2ccc(F)cc2)o1)N1CCCC1 | 31.7 (≈ 111 µM)
CCn1c(NC(=O)/C=C/c2ccc(F)cc2)nc2ccccc21 | 3.5 (≈ 11.3 µM)

SMILES | solubility kinetic [µg/mL]
COc1ccc(CCC(=O)N2CCN(c3cccc(C)c3C)CC2)cc1 | 17.3 (≈ 49.1 µM)
Cn1cc(C=O)c2cc(F)ccc21 | > 26.6
Cc1cccc(NS(=O)(=O)c2c(C)noc2C)c1 | > 39.9
O=C(Nc1ccccc1)c1cccc(Cn2cc(C(F)(F)F)ccc2=O)c1 | 2 (≈ 5.37 µM)
COC(=O)c1cn(C(=O)c2ccc(OC)c(OC)c2)c2ccccc12 | 1.2 (≈ 3.54 µM)
N#C/C(=C(/O)c1ccc(Cl)cc1)c1nc2ccccc2[nH]1 | < 0.2
O=C(NCCNC(=O)c1cnccn1)c1ccc(Cl)c(Cl)c1 | 6.9 (≈ 20.3 µM)
Cc1cc(NC(=O)c2cccc(S(=O)(=O)Nc3cccc(C(=O)O)c3)c2)no1 | > 60.2
O=C(NC1CCCCC1)[C@@H]1CSC2c3ccccc3C(=O)N21 (stereo partly drawn) | 47 (≈ 149 µM)
COC(=O)CC1C(=O)NCCN1C(=O)c1ccc([N+](=O)[O-])cc1 (stereo not drawn) | > 48.2
CC1CCCCN1Cc1ccc(Cl)nc1 (stereo not drawn) | 15.5 (≈ 69 µM)
O=C(COC(=O)c1ccc(Cl)cc1)NC(=O)NC1CCCC1 | 5.7 (≈ 17.6 µM)
N#C/C(=C\c1c[nH]c2ccccc12)C(=O)NC1CC1 | 11.4 (≈ 45.4 µM)
CC1(c2ccc(Cl)cc2)NC(=O)N(CC(=O)NC2CCCCC2)C1=O (stereo not drawn) | > 54.6
COc1ccc(CC(=O)NC2CCCCCC2)c(OC)c1 | 37.6 (≈ 129 µM)
COc1cccc(NC(=S)NCc2ccc(F)cc2)c1 | 37.9 (≈ 131 µM)
CC(=O)c1cn(CC(=O)NCCc2c[nH]c3ccccc23)c2ccccc12 | 2.6 (≈ 7.23 µM)
CC(=O)c1cccc(NC(=O)CCNC(=O)c2ccccc2Cl)c1 | > 51.7
O=C(Nc1ccc(F)cc1)NC1CCCCCCC1 | 1.6 (≈ 6.05 µM)
CN1C(=O)/C(=C/c2coc3ccc(O)cc3c2=O)SC1=S | < 0.7
COc1ccccc1NS(=O)(=O)c1cccc2nsnc12 | 35 (≈ 109 µM)
N#CC1(NC(=O)COc2cccnc2[N+](=O)[O-])CCCCC1 | > 45.6
CCOC(=O)CSCc1csc(CC(=O)Nc2ccccc2C)n1 | 52.4 (≈ 144 µM)
C=CCN1CC[C@]23c4c5ccc(O)c4O[C@H]2C(=O)CC[C@@]3(O)[C@H]1C5.Cl | > 54.6

SMILES | solubility kinetic [µg/mL]
Cc1sc2ncnc(N)c2c1C | > 26.9
CN1C2CCC1CC(NC(=O)CSc1ccc(Cl)cc1)C2 (stereo not drawn) | > 48.7
COc1cc([N+](=O)[O-])ccc1NC(=O)/C=C/C(=O)O | > 39.9
CCCCn1c(SCC(N)=O)nc2sc3c(c2c1=O)CCC3 | 1.9 (≈ 5.63 µM)
C=CCOc1ccc(/C=C/C(=O)OCC(=O)NC2CCCCCCC2)cc1 | < 0.8
C=CCC(=O)N1CCCC(C(=O)c2ccc(Cl)cc2)C1 (stereo not drawn) | 42.5 (≈ 146 µM)
O=C(COC(=O)CSc1ccc(Cl)cc1)Nc1ccc2[nH]c(=O)[nH]c2c1 | 13.5 (≈ 34.5 µM)
Cc1cc(C(=O)NC2Cc3ccccc3C2)c(C)o1 | > 38.3
COC(=O)/C=C1\SC(=NC(=O)c2ccc(OC)cc2)NC1=O | 12 (≈ 37.5 µM)
Cc1ccc(NC(=S)NC(=O)C2CCCC2)cc1C | 0.5 (≈ 1.81 µM)
O=C(COc1ccc(-n2ccnc2)cc1)Nc1cccc(Cl)c1 | 23.7 (≈ 72.3 µM)
CN(CC(=O)NCc1ccco1)S(=O)(=O)c1ccc(F)cc1 | > 49
COc1ccc(CN(C)CC(=O)Nc2cccc3ccccc23)cc1F | 15.1 (≈ 42.8 µM)
O=C(NCCCn1ccnc1)/C(=C/c1cccnc1)NC(=O)c1ccco1 | > 54.8
Nc1nc(COc2ccc(F)cc2Cl)nc(N2CCCCC2)n1 | 3.4 (≈ 10.1 µM)
Clc1c2c(nc3ccccc13)CCC2 | 4 (≈ 19.6 µM)
S=C(NCc1ccncc1)Nc1ccc(Br)cc1 | > 48.3
Cc1cc(F)ccc1NC(=O)c1cnccn1 | 29.7 (≈ 128 µM)
COc1ccc(NC(=O)COC(=O)C2CCN(C(=O)c3ccc(Cl)cc3)CC2)c([N+](=O)[O-])c1 | 22.4 (≈ 47.1 µM)
O=Cc1c(C(=O)O)n(Cc2ccccc2F)c2ccccc12 | > 44.6
CCOC(=O)C1=CCN(Cc2ccccc2)CC1.Cl | 37.8
S=C(NCc1cccs1)NCC1CCCO1 (stereo not drawn) | > 38.5
COc1ccc2cc(Br)ccc2c1CC(=O)N1CCCC1 | 3.2 (≈ 9.19 µM)
COc1ccc(C(=O)O/N=C(/c2ccccc2)c2ccncc2)cc1 | 5.6 (≈ 16.8 µM)

SMILES | solubility kinetic [µg/mL]
Cl.c1ccc2c(c1)nc1n2CCN1CCN1CCCC1 | > 49.4
Cc1cccc(NC(=O)Cn2c(=O)oc3ccccc32)c1C | 6.6 (≈ 22.3 µM)
O=C(Nc1ccc2c(c1)OCO2)c1ccccn1 | 31.4 (≈ 130 µM)
COc1cccc(Nc2ccc(-n3ccnc3)nn2)c1 | > 40.1
CCCC1Cc2[nH]c(=O)c(C#N)cc2CO1 (stereo not drawn) | > 32.7
CCc1nc2ccc(C(=O)Nc3ccc4c(c3)OCO4)cc2nc1CC | 1.6 (≈ 4.58 µM)
Cc1nc2ccccn2c1C(=O)NN=C1CCN(C)CC1 | > 42.8
Cc1ccc(NC(=S)NC(C)(C)C)c([N+](=O)[O-])c1 | 8.2 (≈ 30.7 µM)
CC1CCN(C(=O)/C(=C\c2ccccc2)NC(=O)c2ccccc2)CC1 | 52.2 (≈ 150 µM)
O=C(Cc1ccccc1F)Nc1cc(S(=O)(=O)N2CCOCC2)ccc1N1CCCC1 | 15.1 (≈ 33.7 µM)
CC1CCCN(c2nc(N(C)c3ccccc3)nc(N)c2[N+](=O)[O-])C1 (stereo not drawn) | 4.5 (≈ 13.1 µM)
CCOC(=O)C1CCN(c2ncnc3c(C)csc23)CC1 | 37.8 (≈ 124 µM)
CCOc1ccc(Nc2nc(N)c([N+](=O)[O-])c(N3CCOCC3)n2)cc1 | 2.4 (≈ 6.66 µM)
O=C(Nc1ccc2c(c1)OCO2)C(=O)c1c[nH]c2ccccc12 | 0.7 (≈ 2.27 µM)
CCc1nnc(NC(=O)c2cc(C)nc3ccccc23)s1 | > 44.8
Cc1ccc(S(=O)(=O)CC(O)COc2ccccc2C#N)cc1 (stereo not drawn) | > 49.7
CC1CCCN(C(=O)c2cc(-c3ccco3)nc3ccccc23)C1 (stereo not drawn) | > 48.1
CCOc1ccc(S(=O)(=O)NC(C)C(=O)NCc2ccncc2)cc1 (stereo not drawn) | > 54.5
CCN1CCN(CCC(=O)Nc2cc(OC)cc(OC)c2)CC1 | 35.2 (≈ 110 µM)
O=C(CN1C(=O)c2ccccc2S1(=O)=O)NC1CCCCC1 | > 48.4
COC(=O)c1ccc(CO/N=C/c2ccc(OC)cc2OC)cc1 | < 0.7
OCc1cc(-c2ccc(Cl)c(Cl)c2)on1 | > 36.6
